#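 Results reflect a 48-hour exposure of cells in 96-well plates to compound at five concentrations. Abbreviation: GI50, concentration required for 50% inhibition of growth. TGI: total growth inhibition.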
# What was measured:
# Test in all cases: growth of human tumour cells (NCI), 48 h
# [1] = tested on: MOLT-4 leukemia
# [2] = tested on: NCI-H522 lung
# [3] = tested on: NCI/ADR-RES ovarian
# [4] = tested on: LOX IMVI melanoma
# [5] = tested on: HT29 colon
# [6] = tested on: UO-31 renal
# [7] = tested on: OVCAR-4 ovarian
# [8] = tested on: SF-295 CNS
# [9] = tested on: SK-MEL-2 melanoma
# [10] = tested on: HL-60(TB) leukemia
# [11] = tested on: SK-OV-3 ovarian
# [12] = tested on: SK-MEL-28 melanoma
# [13] = tested on: HOP-92 NSCLC
# [14] = tested on: NCI-H460 lung
# [15] = tested on: MDA-MB-435
# [16] = tested on: OVCAR-5 ovarian
# [17] = tested on: CCRF-CEM leukemia
# [18] = tested on: 786-0 renal
# [19] = tested on: OVCAR-8 ovarian
# [20] = tested on: SF-268 CNS
# [21] = tested on: SF-539 CNS
# [22] = tested on: UACC-257 melanoma
# [23] = tested on: SR leukemia
# [24] = tested on: HCT-15 colon
# [25] = tested on: MCF7 breast
# [26] = tested on: NCI-H226 lung
# [27] = tested on: NCI-H23 lung
# [28] = tested on: SN12C renal
# [29] = tested on: SW-620 colon
# [30] = tested on: PC-3 prostate
# [31] = tested on: RXF 393 renal
# [32] = tested on: RPMI-8226 leukemia
# [33] = tested on: HS 578T breast
# [34] = tested on: K-562 leukemia
# [35] = tested on: HCC-2998 colon
# [36] = tested on: SNB-75 CNS
# [37] = tested on: U251 CNS
# [38] = tested on: DU-145 prostate
# [39] = tested on: MDA-MB-231 breast
# [40] = tested on: ACHN renal
# [41] = tested on: TK-10 renal
# [42] = tested on: A498 renal
# [43] = tested on: M14 melanoma
# [44] = tested on: BT-549 breast
# [45] = tested on: KM12 colon
# [46] = tested on: CAKI-1 renal
# [47] = tested on: SK-MEL-5 melanoma
# [48] = tested on: A549 NSCLC
# [49] = tested on: SNB-19 CNS
# [50] = tested on: OVCAR-3 ovarian
# [51] = tested on: HCT-116 colon
# [52] = tested on: COLO 205 colon
# [53] = tested on: IGROV1 ovarian
# [54] = tested on: MALME-3M melanoma
# [55] = tested on: EKVX NSCLC
# [56] = tested on: T-47D breast
# [57] = tested on: HOP-62 NSCLC
smiles,measurement,setting,value
CCOC(=O)c1cnc2c(C)cc(C)cc2c1NCCCN(C)C,GI50,[1],4.58 µM
same,TGI,[1],33.7 µM
same,GI50,[2],11.2 µM
same,TGI,[2],35 µM
same,GI50,[3],3.57 µM
same,TGI,[3],78.3 µM
same,GI50,[4],2.83 µM
same,TGI,[4],13.6 µM
same,GI50,[5],1.53 µM
same,TGI,[5],3.85 µM
same,GI50,[6],2.87 µM
same,TGI,[6],> 100 µM
same,GI50,[7],3.25 µM
same,TGI,[7],14 µM
same,GI50,[8],3.3 µM
same,TGI,[8],37.2 µM
same,GI50,[9],9.7 µM
same,TGI,[9],31.7 µM
same,GI50,[10],5.6 µM
same,TGI,[10],57.1 µM
same,GI50,[11],3.98 µM
same,TGI,[11],32.4 µM
same,GI50,[12],13 µM
same,TGI,[12],26.1 µM
same,GI50,[13],2.08 µM
same,TGI,[13],12.5 µM
same,GI50,[14],2.57 µM
same,TGI,[14],9.14 µM
same,GI50,[15],4.09 µM
same,TGI,[15],18.1 µM
same,GI50,[16],4.53 µM
same,TGI,[16],46.1 µM
same,GI50,[17],13.6 µM
same,TGI,[17],62.7 µM
same,GI50,[18],4.91 µM
same,TGI,[18],25.7 µM
same,GI50,[19],5.67 µM
same,TGI,[19],> 100 µM
same,GI50,[20],3.91 µM
same,TGI,[20],23.9 µM
same,GI50,[21],3.48 µM
same,TGI,[21],14 µM
same,GI50,[22],10.2 µM
same,TGI,[22],26.2 µM
same,GI50,[23],2.52 µM
same,TGI,[23],8.21 µM
same,GI50,[24],3.69 µM
same,TGI,[24],51.7 µM
same,GI50,[25],2.78 µM
same,TGI,[25],15.7 µM
same,GI50,[26],4.12 µM
same,TGI,[26],26.8 µM
same,GI50,[27],4.29 µM
same,TGI,[27],21.4 µM
same,GI50,[28],3.82 µM
same,TGI,[28],> 100 µM
same,GI50,[29],3.43 µM
same,TGI,[29],41.7 µM
same,GI50,[30],4.08 µM
same,TGI,[30],85.1 µM
same,GI50,[31],5.86 µM
same,TGI,[31],25 µM
same,GI50,[32],17 µM
same,TGI,[32],46.5 µM
same,GI50,[33],4.37 µM
same,TGI,[33],28.3 µM
same,GI50,[34],4.81 µM
same,TGI,[34],35.2 µM
same,GI50,[35],5.35 µM
same,TGI,[35],19.6 µM
same,GI50,[36],2.74 µM
same,TGI,[36],17.4 µM
same,GI50,[37],4.66 µM
same,TGI,[37],76.2 µM
same,GI50,[38],3.8 µM
same,TGI,[38],55.8 µM
same,GI50,[39],3.1 µM
same,TGI,[39],20.4 µM
same,GI50,[40],3.09 µM
same,TGI,[40],40.4 µM
same,GI50,[41],3.91 µM
same,TGI,[41],88 µM
same,GI50,[42],2.85 µM
same,TGI,[42],14.9 µM
same,GI50,[43],4.67 µM
same,TGI,[43],17.5 µM
same,GI50,[44],11.5 µM
same,TGI,[44],39.9 µM
same,GI50,[45],4.15 µM
same,TGI,[45],27.2 µM
same,GI50,[46],3.9 µM
same,TGI,[46],> 100 µM
same,GI50,[47],4.38 µM
same,TGI,[47],16.5 µM
same,GI50,[48],5.29 µM
same,TGI,[48],> 100 µM
same,GI50,[49],5.27 µM
same,TGI,[49],60.1 µM
same,GI50,[50],3.62 µM
same,TGI,[50],27.5 µM
same,GI50,[51],2.74 µM
same,TGI,[51],21.4 µM
same,GI50,[52],1.58 µM
same,TGI,[52],3.55 µM
same,GI50,[53],4.98 µM
same,TGI,[53],> 100 µM
same,GI50,[54],5.84 µM
same,TGI,[54],21.7 µM
same,GI50,[55],4.22 µM
same,TGI,[55],35.6 µM
same,GI50,[56],4.73 µM
same,TGI,[56],29.4 µM
same,GI50,[57],4.66 µM
same,TGI,[57],44.2 µM
